Numbers after ± are expanded uncertainties.
Assays:
[1] = Molar enthalpy of transition or fusion; conditions: Crystal; DSC
[2] = Crystal; DTA

- Molar enthalpy of transition or fusion [1]: 6.63 ± 0.189 kcal/mol
- Normal melting temperature [2]: 169 ± 1 °C
Compound: CCOc1nc2cccc(C(=O)OC(C)OC(=O)OC3CCCCC3)c2n1Cc1ccc(-c2ccccc2)c(-c2nnn[nH]2)c1 (configuration not stated)
